Results published in US10449216B2, “Modulating drug effects against metabotropic glutamate receptor with extracellular calcium” (GEORGIA STATE UNIVERSITY RESEARCH FOUNDATION, INC., priority 2013, dated 2019).
Entries after “also recorded” stand apart in the source; their conditions may differ. Like-named read-outs stand apart in the source and are kept apart here.

Legend:
mGluR5 [1] = target: T1, mGluR5 (Rattus norvegicus, UniProt P31424); details: mGluR5, Sp. Rn; cited from earlier work
mGluR1 [2] = target: mGluR1 (Homo sapiens, UniProt Q13255); details: mGluR1, Sp. Hs; cited from earlier work
mGluR1 (Homo sapiens, UniProt Q13255), sequence (Q13255 19-1194): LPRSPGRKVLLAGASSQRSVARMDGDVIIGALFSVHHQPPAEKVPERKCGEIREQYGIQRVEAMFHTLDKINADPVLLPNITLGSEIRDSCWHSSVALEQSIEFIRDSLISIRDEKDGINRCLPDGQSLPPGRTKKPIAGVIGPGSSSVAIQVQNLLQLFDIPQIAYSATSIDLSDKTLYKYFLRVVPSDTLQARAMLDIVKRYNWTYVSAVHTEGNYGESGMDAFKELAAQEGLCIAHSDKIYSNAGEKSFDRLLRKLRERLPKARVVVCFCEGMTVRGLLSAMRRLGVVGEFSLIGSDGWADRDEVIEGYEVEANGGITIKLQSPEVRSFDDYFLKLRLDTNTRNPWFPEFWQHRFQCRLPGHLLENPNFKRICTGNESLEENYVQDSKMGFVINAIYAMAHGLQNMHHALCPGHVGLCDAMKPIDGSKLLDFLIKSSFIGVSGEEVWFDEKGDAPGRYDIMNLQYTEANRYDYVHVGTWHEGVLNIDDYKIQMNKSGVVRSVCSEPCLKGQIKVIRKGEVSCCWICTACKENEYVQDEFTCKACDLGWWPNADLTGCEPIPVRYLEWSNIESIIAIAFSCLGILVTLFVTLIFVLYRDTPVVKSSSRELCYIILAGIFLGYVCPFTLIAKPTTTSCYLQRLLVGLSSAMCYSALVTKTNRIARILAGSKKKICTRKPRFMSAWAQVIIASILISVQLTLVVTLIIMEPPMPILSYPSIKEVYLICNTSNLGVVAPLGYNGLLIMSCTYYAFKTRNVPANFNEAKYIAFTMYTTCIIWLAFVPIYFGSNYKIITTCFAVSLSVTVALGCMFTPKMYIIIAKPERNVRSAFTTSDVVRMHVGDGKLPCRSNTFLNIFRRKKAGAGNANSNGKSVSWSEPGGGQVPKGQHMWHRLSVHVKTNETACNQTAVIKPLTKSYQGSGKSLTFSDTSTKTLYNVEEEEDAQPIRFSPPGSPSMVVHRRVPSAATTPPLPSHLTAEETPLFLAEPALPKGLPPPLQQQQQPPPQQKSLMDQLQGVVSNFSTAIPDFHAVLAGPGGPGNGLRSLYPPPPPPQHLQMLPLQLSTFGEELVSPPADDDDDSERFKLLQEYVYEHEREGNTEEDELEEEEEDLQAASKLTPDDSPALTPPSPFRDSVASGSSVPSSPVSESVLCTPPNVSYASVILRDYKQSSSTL

mGluR1 [3] = target: T2, mGluR1 (Rattus norvegicus, UniProt P23385); details: mGluR1, Sp. Rn; cited from earlier work
T2 sequence (P23385 19-1199): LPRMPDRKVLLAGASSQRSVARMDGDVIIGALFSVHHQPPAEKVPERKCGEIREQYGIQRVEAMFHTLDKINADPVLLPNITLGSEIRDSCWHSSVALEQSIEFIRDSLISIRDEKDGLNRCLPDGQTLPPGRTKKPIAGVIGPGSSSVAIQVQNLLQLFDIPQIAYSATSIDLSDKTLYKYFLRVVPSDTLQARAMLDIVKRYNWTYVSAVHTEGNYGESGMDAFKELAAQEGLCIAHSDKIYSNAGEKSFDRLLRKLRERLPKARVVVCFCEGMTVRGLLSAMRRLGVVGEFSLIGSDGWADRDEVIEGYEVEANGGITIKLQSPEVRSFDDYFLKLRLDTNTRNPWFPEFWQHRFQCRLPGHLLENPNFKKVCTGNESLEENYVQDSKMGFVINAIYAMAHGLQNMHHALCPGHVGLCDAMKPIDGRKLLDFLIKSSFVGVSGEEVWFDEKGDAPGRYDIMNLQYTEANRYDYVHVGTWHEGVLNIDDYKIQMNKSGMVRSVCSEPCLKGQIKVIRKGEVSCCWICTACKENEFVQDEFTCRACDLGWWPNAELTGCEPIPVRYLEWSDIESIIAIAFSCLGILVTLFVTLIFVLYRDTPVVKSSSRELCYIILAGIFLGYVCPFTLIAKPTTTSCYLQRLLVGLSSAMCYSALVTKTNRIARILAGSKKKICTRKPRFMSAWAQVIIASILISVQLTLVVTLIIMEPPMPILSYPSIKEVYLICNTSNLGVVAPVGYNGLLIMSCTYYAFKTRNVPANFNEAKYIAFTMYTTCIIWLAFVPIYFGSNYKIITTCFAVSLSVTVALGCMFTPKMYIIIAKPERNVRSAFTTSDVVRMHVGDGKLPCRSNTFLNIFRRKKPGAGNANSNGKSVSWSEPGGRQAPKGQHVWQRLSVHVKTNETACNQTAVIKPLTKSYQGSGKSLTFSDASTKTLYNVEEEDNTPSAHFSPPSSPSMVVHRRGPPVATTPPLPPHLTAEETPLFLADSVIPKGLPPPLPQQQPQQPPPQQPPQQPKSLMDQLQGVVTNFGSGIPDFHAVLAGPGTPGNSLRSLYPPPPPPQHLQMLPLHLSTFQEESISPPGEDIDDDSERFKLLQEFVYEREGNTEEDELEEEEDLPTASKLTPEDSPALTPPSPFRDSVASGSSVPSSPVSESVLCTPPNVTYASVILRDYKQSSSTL

mGluR5 [4] = target: T1, mGluR5; test: Intracellular Ca^2+ response/oscillation in mGluR5 transfected HEK293 cells; assay type: cell-based; parameters: expressed in transfected cells; host or cells: HEK293; details: for Percentage of cells with oscillation as a response to L-Glu: low concentration of L-Glu
Description: HEK293 cells were fed on a Dulbecco's Modified Eagle Medium (DMEM) and 10% fetal bovine serum (Invitrogen) and cultured at 37° C. in a humidified incubator with 5% CO2. One day before transfection, HEK293 cells were grown on 22×44 mm coverslips and then were transfected with mGluR5 plasmid (received as a gift from Dr. Randy Hall, Emory University, Atlanta, Ga.) with the aid of lipofectamine 2000 (Invitrogen). mGluR5 transfected HEK293 cells were grown for 48 hours and then loaded with 4 µM Fura-2 AM in loading buffer containing 10 mM HEPES (pH 7.4), 140 mM NaCl, 5 mM KCl, 0.55 mM MgCl2 for 30 minutes at 37° C. The coverslips were then mounted in a bathing chamber on the stage of a fluorescence microscope. […] The ratio of fluorescence emitted at 510 nm resulting from excitation at 340 or 380 nm was analyzed to obtain the [Ca^2+]i response as a function of changes in [Ca^2+]o.
HEK293 cells were cultured and transfected as described above. Intracellular Ca^2+ concentration was recorded using the method as described previously. […]

mGluR1α D322I [5] = target: T3, mGluR1α D322I (Rattus norvegicus, UniProt P23385, D322I); test: Single cell Fura-2 [Ca^2+]i response in HEK293 cells transfected with mGluR1α variant D322I; assay type: cell-based; details: HEK293, read-out: Maximal Response to L-Quis, D322I, normalized to maximal response of WT mGluR1α to L-Glu
T3 construct: expressed in transfected cells; host or cells: HEK293
T3 sequence (P23385 19-1199 D322I): as the sequence (P23385 19-1199) above, with D304I counted along it

mGluR1α D318I = target: T4, mGluR1α D318I (Rattus norvegicus, UniProt P23385, D318I); test: [^3H]-L-Quis binding to membranes of HEK293 cells expressing D318I; details: hypotonic buffer
T4 construct: expressed in transfected cells; host or cells: HEK293
T4 sequence (P23385 19-1199 D318I): as the sequence (P23385 19-1199) above, with D300I counted along it
Description: HEK293 cells transiently transfected with wild type mGluR1α or its mutants were maintained in a 5% CO2 37° C. incubator for an additional 48 hours as before. Cells were then collected in ice cold hypotonic buffer (20 mM HEPES, 100 mM NaCl, 5 mM MgCl2, 5 mM KCl, 0.5 mM EDTA, and 1% protease inhibitors at pH 7.0-7.5). The cell pellet was washed twice more using hypotonic buffer to remove the L-Glu in the cellular debris. The crude membrane protein (100 μg) was mixed with 30 nM [^3H]-L-Quis in 100 μL of hypotonic buffer. The nonspecific binding was determined by measuring bound [^3H]-L-Quis in the presence of 200 μM L-Glu. […] The reaction mixtures were incubated on ice for at least 1 hour, and the membrane-bound [^3H]-L-Quis was captured on filter paper using a Brandel cell harvester under vacuum. The filter paper was then transferred to scintillation fluid, and [^3H]-L-Quis was detected using a Beckman LS 6500 multi-purpose scintillation counter.

mGluR1α E325I [6] = target: T5, mGluR1α E325I (Rattus norvegicus, UniProt P23385, E325I); test: Single cell Fura-2 [Ca^2+]i response in HEK293 cells transfected with mGluR1α variant E325I; assay type: cell-based; details: HEK293, read-out: Maximal Response to L-Quis, E325I, normalized to maximal response of WT mGluR1α to L-Glu
T5 construct: expressed in transfected cells; host or cells: HEK293
T5 sequence (P23385 19-1199 E325I): as the sequence (P23385 19-1199) above, with E307I counted along it

WT mGluR1α [7] = target: T6, WT mGluR1α (Rattus norvegicus, UniProt P23385); test: Single cell Fura-2 [Ca^2+]i response in HEK293 cells transiently transfected with WT mGluR1α; assay type: cell-based; details: for Max. Res. to Ro 67-4853 / Response to [Ca^2+]o: Maximal Response / Max. Res. to Ca^2+: normalized to maximal response of WT mGluR1α to L-Glu
T6 construct: expressed in transfected cells; host or cells: HEK293
T6 sequence (P23385 19-1199): as the sequence (P23385 19-1199) above
Description: The methods for measuring [Ca^2+]i responses were as described above. In the presence of (s)-MCPG, the cells were incubated with 0.5 mM (s)-MCPG in a saline buffer for 30 more minutes after Fura-2 loading.
Fura-2AM was used for monitoring [Ca^2+]i in real time as described above. […] Cells loaded with Fura-2AM were mounted onto a chamber perfused with saline buffer.

WT mGluR1α [8] = target: T6, WT mGluR1α; test: [^3H]-L-Quis binding to membranes of HEK293 cells expressing WT mGluR1α
mGluR1 [9] = target: T2, mGluR1; test: Fura-2 intracellular calcium release in mGluR1-transfected HEK293 cells (Example 4); assay type: cell-based; parameters: expressed in transfected cells; host or cells: HEK293; details: 3 mM/6 mM calcium, after wash with 0 mM calcium
Description: The coverslips with transfected, Fura-2-loaded HEK293 cells were placed diagonally in 3-ml quartz cuvettes containing bath buffer. The fluorescence spectra at 510 nm were measured during stepwise increases in [Ca2+]o with alternating excitation at 340 or 380 nm. The ratio of the intensities of the emitted light at 510 nm when excited at 340 or 380 nm was used to monitor changes in [Ca2+]i. mCherry was genetically fused into mGluR1 pcDNA. so cells have fluorescent intensity at 550 nm was selected for further analysis.

mGluR1α E325I [10] = target: T5, mGluR1α E325I; test: [^3H]-L-Quis binding to membranes of HEK293 cells expressing E325I; details: with 300 nM [^3H]-L-Quis, read-out: KD, [Ca^2+]o-binding affinity of mGluR1α
mGluR1α D322I [11] = target: T3, mGluR1α D322I; test: [^3H]-L-Quis binding to membranes of HEK293 cells expressing D322I; details: in the presence of 30 nM [^3H]-L-Quis, read-out: KD, [Ca^2+]o-binding affinity of mGluR1α

T1 sequence (P31424 21-1203): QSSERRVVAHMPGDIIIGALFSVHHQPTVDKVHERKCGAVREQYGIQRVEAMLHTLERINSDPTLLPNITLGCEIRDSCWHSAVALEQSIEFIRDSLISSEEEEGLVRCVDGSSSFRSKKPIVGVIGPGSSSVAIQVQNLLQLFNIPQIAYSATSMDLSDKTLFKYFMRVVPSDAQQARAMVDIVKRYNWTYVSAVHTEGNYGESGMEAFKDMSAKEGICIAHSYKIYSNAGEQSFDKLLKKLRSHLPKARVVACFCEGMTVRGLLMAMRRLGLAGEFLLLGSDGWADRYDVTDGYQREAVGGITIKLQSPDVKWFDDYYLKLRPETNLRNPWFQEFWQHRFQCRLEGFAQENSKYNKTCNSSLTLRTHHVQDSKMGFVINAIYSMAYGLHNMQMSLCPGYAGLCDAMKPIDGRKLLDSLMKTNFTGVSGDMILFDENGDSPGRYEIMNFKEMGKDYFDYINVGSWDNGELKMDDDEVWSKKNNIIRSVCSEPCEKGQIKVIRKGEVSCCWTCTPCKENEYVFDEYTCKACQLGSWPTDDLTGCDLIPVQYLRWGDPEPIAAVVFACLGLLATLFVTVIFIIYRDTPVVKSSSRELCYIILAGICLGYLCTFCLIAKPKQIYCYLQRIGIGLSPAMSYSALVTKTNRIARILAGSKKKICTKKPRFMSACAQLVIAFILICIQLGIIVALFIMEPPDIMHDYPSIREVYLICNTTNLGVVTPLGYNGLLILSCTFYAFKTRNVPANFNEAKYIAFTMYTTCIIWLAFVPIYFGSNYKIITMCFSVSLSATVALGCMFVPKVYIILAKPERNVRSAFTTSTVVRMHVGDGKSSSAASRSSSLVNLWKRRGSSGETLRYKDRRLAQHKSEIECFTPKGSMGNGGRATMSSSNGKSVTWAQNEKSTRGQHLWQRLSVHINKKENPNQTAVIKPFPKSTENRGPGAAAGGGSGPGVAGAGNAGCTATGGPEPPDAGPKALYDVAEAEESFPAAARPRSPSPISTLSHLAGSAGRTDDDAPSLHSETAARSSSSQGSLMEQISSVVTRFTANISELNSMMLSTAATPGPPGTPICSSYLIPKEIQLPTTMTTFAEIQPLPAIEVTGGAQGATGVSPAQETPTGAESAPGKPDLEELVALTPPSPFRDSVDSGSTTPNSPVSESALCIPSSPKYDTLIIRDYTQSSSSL

Structure (SMILES): N[C@H](C(=O)O)c1ccc(C(=O)O)c(O)c1 [(S)-4C3HPG]
- Affinity (pIC50) (mGluR5 [1]): 5.6 pIC50
- Affinity (pKi) (mGluR1 [2]): 5.8-6.0 pKi

Structure (SMILES): CN(C)c1ccnc2sc3c(=O)n(N4CCCCCC4)cnc3c12 [A841720]
- Affinity (pIC50) (mGluR1 [2]): 8 pIC50

Structure (SMILES): NC1(C(=O)O)CCc2cc(C(=O)O)ccc21 (stereo not shown) [AIDA]
- Affinity (pKi) (mGluR1 [3]): 4 pKi
- Affinity (pA2) (mGluR1 [2]): 4.2 pA2

Structure (SMILES): N[C@@H](CCC(=O)O)C(=O)O [L-Glu, L-glutamic acid]
- Percentage of cells with oscillation as a response to L-Glu (mGluR5 [4]; 0.5 or 1.8 mM extracellular Ca^2+): more than 50%
- Percentage of cells with oscillation as a response to L-Glu (mGluR5 [4]; without extracellular Ca^2+): less than 10%

Structure (SMILES): N[C@@H](Cn1oc(=O)[nH]c1=O)C(=O)O [L-Quis, L-Quisqualate]
- Emax (mGluR1α D322I [5]; [Ca^2+]o 0 mM): 80 ± 16%
- Emax (mGluR1α D322I [5]; [Ca^2+]o 1.8 mM): 96 ± 21%
- [^3H]-L-Quis binding to the mutant (mGluR1α D318I): eliminates L-Quis-binding
- mGluR5 response initiated by L-Quis (mGluR5 [4]; 0 mM Ca^2+ bath solution): almost could not initiate any mGluR5 response; also recorded: hardly showed any response
- Percentage of cells with L-Quis-triggered response (mGluR5 [4]; absence of extracellular Ca^2+ addition): less than 20%
- Percentage of cells with L-Quis-triggered response (mGluR5 [4]; with addition of extracellular Ca^2+, 5 nM L-Quis): more than 60%
- Emax (mGluR1α E325I [6]; [Ca^2+]o 0 mM): 60 ± 8%
- Emax (mGluR1α E325I [6]; [Ca^2+]o 1.8 mM): 88 ± 8%
- Affinity (pIC50) (mGluR5 [1]): 7.5 pIC50
- Emax (WT mGluR1α [7]; HEK293, read-out: Maximal Response to L-Quis): 37 ± 4%

Structure (SMILES): Cc1cc(C(=O)O)ccc1[C@H](N)C(=O)O [LY367385]
- Affinity (pKi) (mGluR1 [3]): 5.9 pKi
- Affinity (pIC50) (mGluR1 [2]): 5.1 pIC50

Structure (SMILES): COc1ccc(Nc2ncnc3ccc(OC)cc23)cc1 [LY456236]
- Affinity (pIC50) (mGluR1 [2]): 6.9 pIC50

Structure (SMILES): O=C(Cc1ccccc1)c1ccc2nc3c(cc2c1)CCCO3 [R214127]
- Affinity (pKi) (mGluR1 [3]): 8.9 pKi
- Affinity (pIC50) (mGluR1 [2]): 8.9 pIC50

Structure (SMILES): CCCCOC(=O)NC(=O)C1c2ccccc2Oc2ccccc21 [Ro 67-4853, (9H-xanthene-9-carbonyl) carbamic acid butyl ester]
- Affinity (pKi) (mGluR1 [3]): 5.1 pKi
- Stimulation of mGluR5 (intracellular Ca^2+ oscillation) (mGluR5 [4]; 0.5 mM Ca^2+, 5 nM): could lead to the stimulation of mGluR5; also recorded: caused high frequency Ca^2+ oscillation
- Stimulation of mGluR5 (intracellular Ca^2+ response) (mGluR5 [4]; no Ca^2+ in the bath solution, 5 to 100 nM): no intracellular Ca^2+ response was observed; also recorded: could not stimulate mGluR5
- Max. Res. to Ro 67-4853 (WT mGluR1α [7]; [Ca^2+]o 0.5 mM): 50 ± 8
- EC50 (WT mGluR1α [7]; [Ca^2+]o 0.5 mM, pre-incubated with 0.5 mM Ca^2+ and 5 nM Ro 67-4853, read-out: EC50 of Ro 67-4853): 0.0207 µM
- Max. Res. to Ro 67-4853 (WT mGluR1α [7]; [Ca^2+]o 1.8 mM): 59 ± 4
- EC50 (WT mGluR1α [7]; [Ca^2+]o 1.8 mM, read-out: EC50 of Ro 67-4853): 0.01 µM

Structure (SMILES): [Ca+2] [[Ca^2+]o]
- Kd (WT mGluR1α [8]; WT, in the presence of 30 nM [^3H]-L-Quis, read-out: KD, [Ca^2+]o-binding affinity of mGluR1α): 300 µM
- EC50 (WT mGluR1α [8]; wild type receptor, read-out: EC50 of [Ca^2+]o for enhancing L-Quis-binding): ~300 µM
- Activation of mGluR1 by calcium alone (mGluR1 [9]): no response was observed
- Extracellular Ca^2+ concentration change that started to induce intracellular oscillation (mGluR5 [4]; no other agonist): 0.05 mM
- Kd (mGluR1α E325I [10]): > 20 mM
- Fold increase of the EC50 for [Ca^2+]o (WT mGluR1α [7]; 0 versus 0.5 mM MCPG): ~1.7 fold
- EC50 (WT mGluR1α [7]; 40 μM CPCCOEt, read-out: EC50 of mGluR1α for [Ca^2+]o): 28700 µM
- Response to [Ca^2+]o: nHill (WT mGluR1α [7]; 0.5 mM (s)-MCPG): 2.6
- Response to [Ca^2+]o: Maximal Response (WT mGluR1α [7]; 0.5 mM (s)-MCPG): 67 ± 2
- EC50 (WT mGluR1α [7]; 0.5 mM (s)-MCPG, read-out: Response to [Ca^2+]o: EC50): 6000 µM
- Response to [Ca^2+]o: nHill (WT mGluR1α [7]; (s)-MCPG 0): 6.4
- Response to [Ca^2+]o: Maximal Response (WT mGluR1α [7]; (s)-MCPG 0): 85 ± 2
- EC50 (WT mGluR1α [7]; (s)-MCPG 0, read-out: Response to [Ca^2+]o: EC50): 3500 µM
- Response to [Ca^2+]o: nHill (WT mGluR1α [7]; CPCCOEt 0): 6.4
- Response to [Ca^2+]o: Maximal Response (WT mGluR1α [7]; CPCCOEt 0): 85 ± 2%
- EC50 (WT mGluR1α [7]; CPCCOEt 0, read-out: Response to [Ca^2+]o: EC50): 3500 µM
- Response to [Ca^2+]o: nHill (WT mGluR1α [7]; CPCCOEt Conc. 5 (μM)): 1.3
- Response to [Ca^2+]o: Maximal Response (WT mGluR1α [7]; CPCCOEt Conc. 5 (μM)): 75 ± 3%
- EC50 (WT mGluR1α [7]; CPCCOEt Conc. 5 (μM), read-out: Response to [Ca^2+]o: EC50): 7600 µM
- Response to [Ca^2+]o: nHill (WT mGluR1α [7]; CPCCOEt Conc. 40 (nM)): 1.1
- Response to [Ca^2+]o: Maximal Response (WT mGluR1α [7]; CPCCOEt Conc. 40 (nM)): 60 ± 3%
- Max. Res. to Ca^2+ (WT mGluR1α [7]; Ro 67-4853 0 nM): 85 ± 2
- EC50 (WT mGluR1α [7]; Ro 67-4853 0 nM, read-out: EC50 of Ca^2+): 3500 µM
- Max. Res. to Ca^2+ (WT mGluR1α [7]; Ro 67-4853 30 nM): 83 ± 6
- EC50 (WT mGluR1α [7]; Ro 67-4853 30 nM, read-out: EC50 of Ca^2+): 2100 µM
- Max. Res. to Ca^2+ (WT mGluR1α [7]; Ro 67-4853 300 nM): 83 ± 2
- EC50 (WT mGluR1α [7]; Ro 67-4853 300 nM, read-out: EC50 of Ca^2+): 700 µM
- EC50 (WT mGluR1α [7]; in the presence of 5 μM CPCCOEt, read-out: EC50 of mGluR1α for [Ca^2+]o): 14700 µM
- Kd (mGluR1α D322I [11]): 600 µM
